# Data reported in ChEMBL document CHEMBL1201862, “PubChem BioAssay data set” (2004).
# Activity calls are given as the source filed them.
# Legend:
# [1] = biological target: T1, Rac GTPase-activating protein 1 (Homo sapiens, UniProt Q9H0H5); test: MgcRacGAP GTPase-activating activity inhibitors, confirmation, biochemical, ADP Hunter fluorescence, primary and confirmatory (AID 624330); assay type: functional
# T1 sequence (Q9H0H5 whole entry): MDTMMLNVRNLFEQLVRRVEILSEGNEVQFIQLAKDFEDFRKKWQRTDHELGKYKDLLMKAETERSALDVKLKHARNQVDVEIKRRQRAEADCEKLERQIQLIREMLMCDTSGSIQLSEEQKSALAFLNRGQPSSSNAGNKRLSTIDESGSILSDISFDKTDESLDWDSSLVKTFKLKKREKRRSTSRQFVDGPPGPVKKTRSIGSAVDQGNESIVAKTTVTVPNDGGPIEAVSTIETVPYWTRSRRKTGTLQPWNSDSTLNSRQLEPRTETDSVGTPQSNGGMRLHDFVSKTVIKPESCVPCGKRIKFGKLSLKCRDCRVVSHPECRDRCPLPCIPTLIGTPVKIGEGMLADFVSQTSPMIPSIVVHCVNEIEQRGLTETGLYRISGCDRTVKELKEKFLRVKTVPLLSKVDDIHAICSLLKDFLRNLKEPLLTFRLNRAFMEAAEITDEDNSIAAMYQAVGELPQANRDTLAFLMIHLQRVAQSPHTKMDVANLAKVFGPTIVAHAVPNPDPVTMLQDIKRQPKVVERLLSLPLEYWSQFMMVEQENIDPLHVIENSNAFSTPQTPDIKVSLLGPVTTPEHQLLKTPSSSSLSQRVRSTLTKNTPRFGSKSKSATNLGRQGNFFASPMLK
# [2] = inhibitors of firefly luciferase expression or activity, dose response, H4 neuroglioma cells, luminescence (AID 1990); assay type: functional, cell-based
# [3] = biological target: T2, Microphthalmia-associated transcription factor (Homo sapiens, UniProt O75030); test: TRPM1 promoter luciferase signal decrease, dose response, MITF inhibitor project, cell-based, SK-MEL-5, cherry-picked, set 3 (AID 493073); assay type: functional
# T2 sequence (O75030 whole entry): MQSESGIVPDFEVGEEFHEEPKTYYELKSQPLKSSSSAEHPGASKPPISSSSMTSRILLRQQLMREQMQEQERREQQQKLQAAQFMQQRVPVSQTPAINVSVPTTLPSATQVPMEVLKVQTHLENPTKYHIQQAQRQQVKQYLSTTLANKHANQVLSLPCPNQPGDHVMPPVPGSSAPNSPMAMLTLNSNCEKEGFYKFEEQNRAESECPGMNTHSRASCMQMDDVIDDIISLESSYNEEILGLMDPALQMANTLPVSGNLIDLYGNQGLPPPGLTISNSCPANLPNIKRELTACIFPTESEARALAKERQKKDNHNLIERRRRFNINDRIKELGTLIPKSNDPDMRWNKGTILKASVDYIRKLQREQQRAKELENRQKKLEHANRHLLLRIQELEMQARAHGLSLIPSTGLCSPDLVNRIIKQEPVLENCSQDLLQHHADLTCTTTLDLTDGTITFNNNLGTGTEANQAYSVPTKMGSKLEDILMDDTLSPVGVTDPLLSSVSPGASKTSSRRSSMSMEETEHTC
# [4] = inhibitors of SNCA 5'UTR-driven reporter translation, confirmation, H4 neuroglioma cells, luminescence (AID 1988); assay type: functional, cell-based
# [5] = Luminescence Cell-Based Dose Response HTS to Identify Inhibitors of 5'UTR Stem-Loop Driven Prion Protein mRNA Translation in H4 Neuroglioblastoma Cells. [Related pubchem assays: 1827 (Project Summary), 1813 (Primary HTS)]; assay type: functional
# [6] = Luminescence Cell-Based Dose Response HTS to Identify Activators of Luciferase Translation or Activity in H4 […] Cells. [Related pubchem assays: 1829 (Project Summary), 1814 (Primary HTS)]; assay type: functional
# [7] = Luminescence Cell-Based Dose Confirmation HTS to Identify Activators of 5'UTR Stem-Loop Driven Alpha-Synuclein mRNA Translation in H4 Neuroglioblastoma Cells. [Related pubchem assays: 1829 (Project Summary), 1814 (Primary HTS)]; assay type: functional
# H4 = test: Luminescence Cell-Based Dose Response HTS to Identify Activators of 5'UTR Stem-Loop Driven Prion Protein mRNA Translation in H4 Neuroglioblastoma Cells. [Related pubchem assays: 1829 (Project Summary), 1814 (Primary HTS)]; assay type: functional; settings: Homo sapiens
# [8] = Shn3 3'UTR reporter inhibitors, dose response, cell-based, Clone20 osteoblasts, firefly luciferase, cherry-picked (AID 624132); assay type: functional;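 also: firefly luciferase luminescence from reporter carrying the Shn3 3'UTR in osteoblasts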
# [9] = control 3'UTR Renilla luciferase suppression, dose response, counter-screen for Shn3 inhibitor project, cell-based, Clone20-Shn3RL, cherry-picked (AID 624133); assay type: functional
# Protein skinhead-1 = biological target: T3, Protein skinhead-1 (Caenorhabditis elegans, UniProt P34707); assay type: functional
# T3 sequence (P34707 whole entry): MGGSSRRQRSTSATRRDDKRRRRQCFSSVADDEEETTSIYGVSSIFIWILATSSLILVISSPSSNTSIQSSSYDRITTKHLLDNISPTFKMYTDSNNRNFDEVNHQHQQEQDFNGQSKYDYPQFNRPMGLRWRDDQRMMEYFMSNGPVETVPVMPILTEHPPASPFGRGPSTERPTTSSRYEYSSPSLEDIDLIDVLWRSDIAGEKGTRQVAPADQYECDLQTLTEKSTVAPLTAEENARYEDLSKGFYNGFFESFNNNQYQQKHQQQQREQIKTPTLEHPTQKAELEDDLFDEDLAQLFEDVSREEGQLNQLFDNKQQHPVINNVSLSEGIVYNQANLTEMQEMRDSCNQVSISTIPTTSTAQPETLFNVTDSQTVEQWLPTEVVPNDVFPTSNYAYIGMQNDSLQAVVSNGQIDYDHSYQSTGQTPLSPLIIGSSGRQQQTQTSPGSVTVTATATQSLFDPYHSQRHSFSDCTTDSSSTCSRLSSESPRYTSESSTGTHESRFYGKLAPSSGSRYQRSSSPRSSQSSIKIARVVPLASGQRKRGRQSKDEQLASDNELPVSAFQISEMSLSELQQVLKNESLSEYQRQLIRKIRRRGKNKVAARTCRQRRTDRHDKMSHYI
# [10] = growth suppression of PTEN-null colon cells, dose response, cell-based, HCT116 PTEN knockout (AID 1047); assay type: functional;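 also: HCT116 colon tumor cells with PTEN knocked out; cells exposed to compound for 60 hours before readout; potency for loss of cell viability measured by luminescence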
# [11] = growth suppression of beta-catenin-knockout colon cells, dose response, cell-based, HCT116, human colon tumor (AID 1045); assay type: functional;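 also: HCT116 colon tumor cells with beta catenin knocked out; cells exposed to compound for 60 hours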
# [12] = LGR2 antagonists, dose response, cell-based, HEK293, CRE-luciferase reporter, cherry pick, set 2 (AID 743343); assay type: functional;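 also: transfected cells were stimulated with diluted bursicon conditioned medium after compound addition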
# [13] = MC4R antagonists, dose response, counter-screen for LGR2 antagonist project, cell-based, plate reader, cherry pick (AID 743444); assay type: functional;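 also: transfected HEK 293 cells stimulated with alpha-MSH peptide; potency of inhibitors of the alpha-MSH evoked signal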
# [14] = HEp-2 cell cytotoxicity, dose response, cytotoxicity control for RSV inhibitor project, HTS (AID 2410); assay type: functional; settings: human respiratory syncytial virus
# [15] = biological target: T4, RNA-binding protein pos-1 (Caenorhabditis elegans, UniProt G5EF15); test: inhibitors of POS-1/mex-3 RNA binding, dose response, biochemical, fluorescence polarization (AID 1964);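 also: purified POS-1 fused to maltose binding protein made in E. coli; potency of compounds blocking POS-1 binding to fluorescent RNA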
# T4 sequence (G5EF15 whole entry): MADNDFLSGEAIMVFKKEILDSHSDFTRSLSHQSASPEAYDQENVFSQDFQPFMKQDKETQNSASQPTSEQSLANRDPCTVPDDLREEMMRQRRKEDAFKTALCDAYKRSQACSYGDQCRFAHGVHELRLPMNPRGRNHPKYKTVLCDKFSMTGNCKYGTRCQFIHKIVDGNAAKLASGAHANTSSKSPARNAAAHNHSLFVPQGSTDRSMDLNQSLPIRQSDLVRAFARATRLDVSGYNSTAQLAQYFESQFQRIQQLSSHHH
# [16] = biological target: T5, Zinc finger protein mex-5 (Caenorhabditis elegans, UniProt Q9XUB2); test: MEX-5/TCR-2 RNA interaction inhibitors, dose response, biochemical, C. elegans, fluorescence polarization (AID 1960)
# T5 sequence (Q9XUB2 whole entry): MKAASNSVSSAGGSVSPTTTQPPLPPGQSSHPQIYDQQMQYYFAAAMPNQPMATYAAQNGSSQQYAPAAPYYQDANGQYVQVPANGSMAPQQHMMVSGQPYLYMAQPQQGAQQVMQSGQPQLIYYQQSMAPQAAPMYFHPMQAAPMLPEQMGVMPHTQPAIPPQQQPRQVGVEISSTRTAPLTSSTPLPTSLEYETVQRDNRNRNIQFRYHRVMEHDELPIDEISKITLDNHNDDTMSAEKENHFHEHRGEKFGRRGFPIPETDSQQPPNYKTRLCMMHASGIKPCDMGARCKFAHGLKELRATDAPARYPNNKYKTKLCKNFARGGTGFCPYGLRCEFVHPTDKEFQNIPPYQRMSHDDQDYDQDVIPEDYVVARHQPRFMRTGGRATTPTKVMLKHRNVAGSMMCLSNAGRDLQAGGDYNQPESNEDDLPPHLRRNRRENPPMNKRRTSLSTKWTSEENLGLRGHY
Compound,EC50 [6],EC50 [7],EC50 (H4),other results
Cc1cc(C)c(OCC(O)CN2CCN(C(=O)c3ccccc3)CC2)c(C)c1 (stereo not drawn),–,–,–,IC50 [1]: 139 µM (active)
COc1ccc(NC2CCCN(C(=O)CN3CCOC3=O)C2)cc1 (stereo not drawn),–,–,–,IC50 [1]: 109 µM (active)
COc1ccc(N2CC2c2ccncc2)cc1 (stereo not drawn),–,–,–,IC50 [1]: 144 µM (active)
O=C(Nc1nc2cc3c(cc2s1)OCO3)C1=COCCO1,–,–,–,EC50 [2]: 2.39 µM (inconclusive); AC50 [3]: 3.77 µM (active); EC50 [4]: 1.22 µM (active); EC50 [5]: 6.64 µM (active)
Fc1ccccc1Nc1nc2ccccc2n2nnnc12,95.3 µM (active),26.2 µM (active),62.6 µM (active),–
CC(C)CCNC(=O)c1cc2c(O)nc3ccccc3c2s1,–,–,–,AC50 [8]: 41.5 µM (active); AC50 [9]: 18.4 µM (active)
FC(F)(F)c1ccccc1Cc1c(-c2ccccc2)nc2ccc(Br)cn12,–,–,–,IC50 (Protein skinhead-1): > 100 µM (inactive)
C[n+]1cn(/N=C/c2ccccc2)c2ccccc21,> 120 µM (not active),17.4 µM (active),57.7 µM (active),–
COc1cc(/C=N/NC(=O)C(=O)N2CCCC2)ccc1O,–,–,–,IC50 [1]: 26.7 µM (active)
O=C(CNS(=O)(=O)c1cccs1)Nc1ccc2c(c1)OCCO2,7.8 µM (active),11.6 µM (active),2.85 µM (active),–
CCOC(=O)N1CCC(N2CCN(S(=O)(=O)c3ccc4ccccc4c3)CC2)CC1,–,–,–,IC50 [1]: 151 µM (active)
COc1ccc(C2=NN(CN3C(=O)C(=O)c4ccccc43)C(c3ccc(OC)cc3)C2)cc1 (stereo not drawn),–,14.6 µM (active),0.112 µM (active),–
O=C1Nc2cc(Cl)c(Cl)cc2N(O)N1c1ccc(Cl)cc1,> 120 µM (not active),> 120 µM (not active),> 120 µM (not active),–
COc1cc(CN2CCN(C(=O)CC(C)C)CC2)cc(OC)c1O,–,–,–,IC50 [1]: 78.6 µM (active)
CCCNC(=O)c1c(NC(=O)C2COc3ccccc3O2)sc2c1CCCC2 (stereo not drawn),–,–,–,EC50 [10]: 8.59 µM (active); EC50 [11]: 9.98 µM (active)
CN(C)c1ccc(C2NC(=O)c3ccccc3N2)cc1 (stereo not drawn),–,–,–,AC50 [12]: 7.27 µM (active); AC50 [13]: 9.95 µM (active)
COc1cc2nc(C3CC3)n(NC(=O)c3ccc(Cl)cc3)c(=O)c2cc1OC,–,–,–,IC50 (Protein skinhead-1): > 100 µM (inactive)
COc1ccc2cc(C(=O)N3CCN(C)CC3)[nH]c2c1,9.45 µM (active),13.3 µM (active),> 120 µM (not active),–
c1ccc(CSc2nnc(-c3ccco3)n2Cc2ccccc2)cc1,6.57 µM (active),0.166 µM (active),7.76 µM (active),–
NS(=O)(=O)c1cc2c(cc1Cl)NC(C1C[C@H]3C=C[C@@H]1C3)NS2(=O)=O (stereo partly drawn),> 120 µM (not active),> 120 µM (not active),> 120 µM (not active),–
CCc1cc(SC#N)cc(CC)c1NC(=O)CCl,–,–,–,EC50 [10]: 8.97 µM (active); EC50 [11]: 8.43 µM (active)
CC(C)CC(=O)Nc1ccc(Nc2ccccc2)cc1,–,–,–,IC50 (Protein skinhead-1): > 100 µM (inactive)
C=C(C)CN1C(=O)C(O)(CC(=O)c2ccc3c(c2)OCCO3)c2ccccc21 (stereo not drawn),–,–,–,EC50 [10]: 22.1 µM (active); EC50 [11]: 22.7 µM (active)
O=C(Nc1nc2c(ccc3ccccc32)s1)c1ccco1,–,–,–,CC50 [14]: 14.8 µM (active); IC50 (Protein skinhead-1): 14.9 µM (active)
CC(=O)N(C1=NCCCS1)c1ccc(F)cc1,–,–,–,IC50 (Protein skinhead-1): > 100 µM (inactive)
ClC(=C\c1ccccc1)/C=N/N1CCN(c2ccccn2)CC1,36.5 µM (active),0.347 µM (active),8.35 µM (active),–
Cc1ccc2nc3sc(C(=O)N4CCCc5ccccc54)c(N)c3cc2c1,7.55 µM (active),> 120 µM (not active),> 120 µM (not active),EC50 [15]: > 300 µM (not active); EC50 [16]: > 300 µM (inconclusive)
Brc1ccc(-c2cn3ccccc3n2)s1,–,–,–,IC50 (Protein skinhead-1): 12.7 µM (active)
